Assay results as given in ChEMBL document CHEMBL1201862, “PubChem BioAssay data set” (2004).
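Method: 48-hour compound exposure of cells in 96-well plates, five concentrations, linear interpolation of endpoints. At the GI50, growth is halved.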 Activity calls are given as the source filed them. No stated cut-off is given here; in the data, active = GI50 up to about 1.1 µM and inactive = higher. Residues, ends and D or L forms follow the SMILES beside them. Groups on a side chain read outwards from the residue. *: point of attachment. Cbz = O=C(OCc1ccccc1)*; Boc = CC(C)(C)OC(=O)*

Assays:
Test in all cases: inhibition of tumour cell growth, NCI panel, 48 h
[1] = tested on: CCRF-CEM
[2] = tested on: OVCAR-5
[3] = tested on: UACC-257
[4] = tested on: TK-10
[5] = tested on: PC-3
[6] = tested on: SF-268
[7] = tested on: UO-31
[8] = tested on: A498
[9] = tested on: A549
[10] = tested on: SF-539
[11] = tested on: OVCAR-4
[12] = tested on: ACHN
[13] = tested on: OVCAR-3
[14] = tested on: MOLT-4
[15] = tested on: KM12
[16] = tested on: SR
[17] = tested on: NCI-H522
[18] = tested on: M14
[19] = tested on: NCI-H226

| Compound | GI50 [1] | GI50 [2] | GI50 [3] | GI50 [4] | GI50 [5] | GI50 [6] | GI50 [7] | GI50 [8] | GI50 [9] | GI50 [10] | GI50 [11] | GI50 [12] | GI50 [13] | GI50 [14] | GI50 [15] | GI50 [16] | GI50 [17] | GI50 [18] | GI50 [19] |
| --- | --- | --- | --- | --- | --- | --- | --- | --- | --- | --- | --- | --- | --- | --- | --- | --- | --- | --- | --- |
| NS(=O)(=O)c1ccc(NC(=S)NC=C2C(=O)c3ccccc3C2=O)cc1 | > 100 µM (inactive) | > 100 µM (inactive) | > 100 µM (inactive) | 46.6 µM (inactive) | > 100 µM (inactive) | 36.5 µM (inactive) | 22.6 µM (inactive) | 71.9 µM (inactive) | > 100 µM (inactive) | 35.5 µM (inactive) | 49 µM (inactive) | > 100 µM (inactive) | 55.8 µM (inactive) | 61.9 µM (inactive) | > 100 µM (inactive) | 42 µM (inactive) | 65.9 µM (inactive) | > 100 µM (inactive) |  |
| O=C(O)c1ccccc1CC1Cc2ccccc2C1=O (stereo not drawn) | > 100 µM (inactive) | > 100 µM (inactive) | > 100 µM (inactive) | > 100 µM (inactive) | > 100 µM (inactive) | > 100 µM (inactive) | > 100 µM (inactive) |  | > 100 µM (inactive) | > 100 µM (inactive) | > 100 µM (inactive) | > 100 µM (inactive) | > 100 µM (inactive) | > 100 µM (inactive) | > 100 µM (inactive) | > 100 µM (inactive) | > 100 µM (inactive) | > 100 µM (inactive) | > 100 µM (inactive) |
| CC(C)CC(NC(=O)OCc1ccccc1)C(=O)NCCCCC(NC(=O)C(CCCCNC(=O)C(CC(C)C)NC(=O)OCc1ccccc1)NC(=O)C(CCCCNC(=O)C(CC(C)C)NC(=O)OCc1ccccc1)NC(=O)C(CCCCNC(=O)C(CC(C)C)NC(=O)OCc1ccccc1)NC(=O)OC(C)(C)C)C(=O)O (stereo not drawn) (Boc-K([Leu-Cbz])K([Leu-Cbz])K([Leu-Cbz])K([Leu-Cbz])-OH; configuration not given here) | > 25 µM (inactive) | > 25 µM (inactive) | > 25 µM (inactive) | > 25 µM (inactive) | > 25 µM (inactive) | > 25 µM (inactive) | > 25 µM (inactive) | > 25 µM (inactive) | > 25 µM (inactive) |  | > 25 µM (inactive) | > 25 µM (inactive) | > 25 µM (inactive) | > 25 µM (inactive) |  | > 25 µM (inactive) | > 25 µM (inactive) | > 25 µM (inactive) | > 25 µM (inactive) |
| C=CCCC1CCCCNC1=S (stereo not drawn) | > 10 µM (inactive) | > 10 µM (inactive) | > 10 µM (inactive) | > 10 µM (inactive) | > 10 µM (inactive) | > 10 µM (inactive) | > 10 µM (inactive) | > 10 µM (inactive) | > 10 µM (inactive) | > 10 µM (inactive) | > 10 µM (inactive) | > 10 µM (inactive) | > 10 µM (inactive) | > 10 µM (inactive) | > 10 µM (inactive) | > 10 µM (inactive) |  | > 10 µM (inactive) | > 10 µM (inactive) |
| Nc1cc2nc(O)c(O)nc2cc1N | > 100 µM (inactive) | > 100 µM (inactive) | > 100 µM (inactive) | > 100 µM (inactive) | > 100 µM (inactive) | > 100 µM (inactive) | > 100 µM (inactive) | > 100 µM (inactive) | > 100 µM (inactive) | > 100 µM (inactive) | > 100 µM (inactive) | > 100 µM (inactive) | > 100 µM (inactive) | > 100 µM (inactive) | > 100 µM (inactive) | > 100 µM (inactive) |  |  | > 100 µM (inactive) |
| CN(C)Nc1cc(=O)[nH]c(=O)[nH]1 | > 100 µM (inactive) | > 100 µM (inactive) | > 100 µM (inactive) | > 100 µM (inactive) | > 100 µM (inactive) | > 100 µM (inactive) | > 100 µM (inactive) | > 100 µM (inactive) | > 100 µM (inactive) | > 100 µM (inactive) | > 100 µM (inactive) | > 100 µM (inactive) | > 100 µM (inactive) | > 100 µM (inactive) | > 100 µM (inactive) | > 100 µM (inactive) |  | > 100 µM (inactive) | > 100 µM (inactive) |
| O=c1[nH]c(Nc2cccc(C(F)(F)F)c2)nc2[nH]cnc12 | > 100 µM (inactive) | > 100 µM (inactive) | > 100 µM (inactive) | > 100 µM (inactive) | 75.2 µM (inactive) | > 100 µM (inactive) |  |  | > 100 µM (inactive) | > 100 µM (inactive) | 94.2 µM (inactive) | > 100 µM (inactive) | > 100 µM (inactive) | > 100 µM (inactive) | > 100 µM (inactive) | > 100 µM (inactive) | 69.7 µM (inactive) | > 100 µM (inactive) | > 100 µM (inactive) |
| CC(NC(=O)Cc1ccccc1)NC(=O)C(C)C(=O)NCc1ccccc1 (stereo not drawn) | > 100 µM (inactive) | > 100 µM (inactive) | > 100 µM (inactive) | 45.4 µM (inactive) | > 100 µM (inactive) | 33.3 µM (inactive) | 42.6 µM (inactive) |  | > 100 µM (inactive) | 82.4 µM (inactive) | > 100 µM (inactive) | 52.2 µM (inactive) |  | > 100 µM (inactive) | > 100 µM (inactive) | > 100 µM (inactive) | > 100 µM (inactive) | > 100 µM (inactive) | 21.7 µM (inactive) |
| CCN(CC)CCN(C(=O)C(C)(C)C)c1ccccc1N | > 100 µM (inactive) | > 100 µM (inactive) | > 100 µM (inactive) | > 100 µM (inactive) | > 100 µM (inactive) | > 100 µM (inactive) | > 100 µM (inactive) |  | > 100 µM (inactive) | > 100 µM (inactive) | > 100 µM (inactive) | > 100 µM (inactive) | > 100 µM (inactive) | > 100 µM (inactive) | > 100 µM (inactive) | > 100 µM (inactive) | > 100 µM (inactive) | > 100 µM (inactive) | > 100 µM (inactive) |
| COC(=O)CCC(=O)c1ccc2c(c1)CC1(C2)Cc2ccc(C(=O)CCC(=O)OC)cc2C1 | > 100 µM (inactive) | > 100 µM (inactive) | 85.1 µM (inactive) | 82.6 µM (inactive) | 39.8 µM (inactive) |  | 30.5 µM (inactive) | 45 µM (inactive) | > 100 µM (inactive) | 67.5 µM (inactive) | 32.7 µM (inactive) | 25.8 µM (inactive) | 61.2 µM (inactive) | 52 µM (inactive) | > 100 µM (inactive) | 17 µM (inactive) | 55.1 µM (inactive) | 66.5 µM (inactive) |  |
| O=C1c2ccccc2C(=O)c2c(NC(=O)C3CC3)ccc(NC(=O)C3CC3)c21 |  | > 100 µM (inactive) | > 100 µM (inactive) | > 100 µM (inactive) | > 100 µM (inactive) |  | > 100 µM (inactive) | > 100 µM (inactive) | > 100 µM (inactive) | > 100 µM (inactive) |  | 58.2 µM (inactive) | > 100 µM (inactive) | > 100 µM (inactive) | > 100 µM (inactive) | > 100 µM (inactive) | 65.8 µM (inactive) |  |  |
| Cc1cc(C)n(-c2nc3ccccc3c(=O)[nH]2)n1 | 0.356 µM (active) | > 77.3 µM (inactive) | 33.6 µM (inactive) | > 50.8 µM (inactive) | 5.96 µM (inactive) | 4.1 µM (inactive) | 3.77 µM (inactive) | 23.2 µM (inactive) | 2.95 µM (inactive) | 4.4 µM (inactive) | 56.6 µM (inactive) | 2.49 µM (inactive) | 4.11 µM (inactive) | 1.6 µM (inactive) | 5.94 µM (inactive) | 0.906 µM (active) | 2.81 µM (inactive) | 3.75 µM (inactive) |  |
| CCOC(=O)C(Cc1ccc2c(c1)CCC2)Cc1ccc2c(c1)CCC2 | 27.1 µM (inactive) | > 100 µM (inactive) | 54.5 µM (inactive) | > 100 µM (inactive) | 38.9 µM (inactive) | > 100 µM (inactive) | 78 µM (inactive) | > 100 µM (inactive) | > 100 µM (inactive) | > 100 µM (inactive) | > 100 µM (inactive) | > 100 µM (inactive) | > 100 µM (inactive) | 16.9 µM (inactive) |  | 25.1 µM (inactive) | 44.9 µM (inactive) | > 100 µM (inactive) |  |
| COC(=O)c1cc(-c2c[nH]cc2C(=O)OCc2ccccc2)cn1S(=O)(=O)c1ccc(C)cc1 | > 100 µM (inactive) | > 100 µM (inactive) | 7.93 µM (inactive) | > 100 µM (inactive) | 36.7 µM (inactive) | > 100 µM (inactive) | > 100 µM (inactive) | > 100 µM (inactive) | > 100 µM (inactive) | > 100 µM (inactive) | > 100 µM (inactive) | > 100 µM (inactive) | > 100 µM (inactive) | > 100 µM (inactive) | > 100 µM (inactive) | > 100 µM (inactive) | > 100 µM (inactive) | > 100 µM (inactive) |  |
| Cc1nc(-c2cc3cc(Cl)ccc3oc2=O)cc2c1c(=O)oc1ccc(Cl)cc12 | > 100 µM (inactive) |  | > 100 µM (inactive) | > 100 µM (inactive) | > 100 µM (inactive) | > 100 µM (inactive) | > 100 µM (inactive) | > 100 µM (inactive) | > 100 µM (inactive) |  |  | > 100 µM (inactive) | > 100 µM (inactive) | > 100 µM (inactive) | > 100 µM (inactive) | > 100 µM (inactive) | 70.3 µM (inactive) | > 100 µM (inactive) | > 100 µM (inactive) |
